This is an account of results in patent US11267802B2 (BEBETTER MED INC., priority 2015, dated 2022).

Like-named read-outs stand apart in the source and are kept apart here.

Data set [1] is described as follows: Pharmacokinetic experiments of tumor model (plasma and tumor tissue, H1975 xenograft mice). The class given is in vivo, Balb/C nude mice. The following applies: oral 30 mg/kg; for AUC(0-inf) / Cmax / Tmax / half-life / AUC(0-t): Balb/C nude, mouse; for AUC(0-t): read-out: AUC0-24. As to the method:
(§1) Balb/C nude mice were purchased from Beijing Vital River Laboratory Animal Technology Co., Ltd., and housed in SPF animal room. The human non-small-cell lung cancer cell line H1975 in a culture dish was collected by trypsin-EDTA (0.25% trypsin, 1 mM EDTA), and then washed with a serum-free PBS solution. Lastly, the cells were implanted after diluted in a serum-free medium. Only the single cell suspension with a survival rate over 90% (Trypan blue rejection) can be used for injection. 5 million cells suspended in a 0.1 ml serum-free culture were injected into the front right flanking subcutaneous region of each mouse by using a 1 ml syringe and a 25G syringe needle, and the blood vessel was carefully avoided. The tumor size was measured in about one week after implantation. A caliper rule was used to measure the tumor size. The tumor volume was calculated by the following formula: tumor volume=(length×width^2)/2.
When the volume of H1975 xenograft tumor reached a volume of about 400 mm^3, the animals were divided into 6 oral administration groups, that is, excipient control group (0 hour) and groups of 30 minutes, 2 hours, 4 hours, 8 hours, and 24 hours after administration (3 animals at each time point). The compound 91 was dissolved in 30% sulfobutylated beta-cyclodextrin (SBE-β-CD) and 1 N HCl (pH 3-4) at a concentration of 3 mg/ml, and gavage administration at a dose of 30 mg/kg was performed. The mice were euthanized by CO2 at the above time points. Then their blood was collected from the heart and placed in a centrifuge tube containing K2-EDTA, and subjected to plasma collection by centrifugation. The tumor tissue was collected, cooled in liquid nitrogen immediately, and then stored under −80° C. until pharmacokinetic analysis.
Pharmacokinetic analysis was performed as below: the plasma sample and tumor tissue homogenate sample were mixed with 5 microliter of internal standard (IS), and then extracted with ethyl acetate. After vacuum drying, the residue was re-dissolved in acetonitrile. The sample was filtered and injected into LC-MS/MS for analysis.

For data set [2], the system named is EGFR phosphorylation in H1975 xenograft tumor. The data set is described as follows: Pharmacodynamic experiments of tumor model (EGFR phosphorylation, Western blot). The class given is in vivo, Balb/C nude mice. As to conditions: oral 30 mg/kg. The protocol:
as §1
When the H1975 xenograft tumor reached a volume of about […], the animals were divided into 4 oral administration groups, that is, excipient control group (0 hour) and groups of 2 hours, 4 hours, and 8 hours after administration (3 to 4 animals at each time point). […]
20 mg of tumor tissue was homogenized in 300 μl of protein extract (RIPA, CST, #9806). […] The protein concentration was determined by Bradford method (Beyotime, # P0006). […]

The next data set concerns H1975 xenograft tumor. Description: Potency assay of tumor model, dose-effect relationship, 22 consecutive days. The class given is in vivo, Balb/C nude mice. As to conditions: for Tumor inhibition T/C value (%) / Weight change (%): po, qd. The protocol:
as §1
Further assay was performed to assess the dose-effect relationship of the inhibition of H1975 transplantation tumor growth by the compounds 51 and 91. […] These compounds were dissolved in 30% sulfobutylated beta-cyclodextrin (SBE-β-CD) and 1N HCl (pH 3-4), respectively. […]

As to `C=CC(=O)Nc1cc(Nc2nccc(-n3c(=O)n(C(C)C)c4cc(F)ccc43)n2)c(OC)cc1N(C)CCN(C)C` [Compound 91, N-(2-((2-(dimethylamino)ethyl)(methyl)amino)-5-(4-(5-fluoro-3-isopropyl-2-oxo-2,3-dihydro-1H-benzo[d]imidazol-1-yl)pyrimidin-2-ylamino)-4-methoxyphenyl)acrylamide], the melting point (commonly the temperature of the solid-liquid transition) lay within 225 to 227 °C. In addition, in data set [1] (plasma), the AUC(0-inf) (commonly total exposure, with the tail of the curve extrapolated) was 5130 ng·h/mL; the Cmax – broadly, the maximum level reached in the sampled fluid or tissue – turned out to be 1720 ng/mL; the time of peak concentration (Tmax) (in general, the time at which the peak concentration occurs) is 0.5 h; the half-life – broadly, the time in which the quantity being followed falls by half – was 3.1 h. For the same compound, the AUC(0-t) in data set [1] (plasma) came to 5100 ng·h/mL. Moreover, in data set [1] (tumor tissue), the AUC(0-inf) came to 6840 ng·h/mL, the concentration peaked (Cmax) at 868 ng/mL, the Tmax turned out to be 4 h and the half-life was 5.5 h. Moreover, the AUC(0-t) in data set [1] (tumor tissue) came out at 6430 ng·h/mL. The “absorption after oral administration (in words)” value in data set [1] is reported as “absorbed quickly”. Moreover, the “inhibition of EGFR phosphorylation in H1975 tumor (in words)” value in data set [2] (at 2 hours and 4 hours) was “strong”. In data set [2] (at 8 hours), the “inhibition of EGFR phosphorylation in H1975 tumor (in words)” value is listed as “obvious inhibition effect”. Besides, in the data set with H1975 xenograft tumor (10 mg/kg, 22 consecutive days), the “Tumor inhibition T/C value (%)” value was −73% and the “Weight change (%)” value stood at 1.6%. Besides, in the data set on H1975 xenograft tumor (20 mg/kg, 22 consecutive days), the “Tumor inhibition T/C value (%)” value was −100% and the “Weight change (%)” value is recorded as 1.2%. For the same compound, in the data set on H1975 xenograft tumor (40 mg/kg, 22 consecutive days), the “Tumor inhibition T/C value (%)” value is −100% and the “Weight change (%)” value is listed as −3.5%. In the data set with H1975 xenograft tumor (high dose (40 mg/kg), 22 consecutive days), the “tumor outcome (in words)” value is listed as “the tumor disappeared completely”. Besides, in the data set with H1975 xenograft tumor (oral, 10, 20 and 40 mg/kg), the “dose dependence of inhibition of H1975 xenograft tumor growth (in words)” value is on record as “dose dependently inhibited”.
